According to patent US12590100B2, “Tetrahydro-spiroindoline-pyrrolopyrrole-triones inhibitors of the NRF2-β-TrCP interaction for use in the treatment of fatty liver disease” (Universidad Autonoma De Madrid, priority 2021, dated 2026):

Tests used:
[1] = tested on: transcriptional activity of NRF2; assay: ARE luciferase reporter assay in MCF-7 c32 ARE-LUC cells; type: cell-based; details: 9 μM, 16 h
Experimental: FIG. 4. […] MEFs in serum-depleted conditions were subjected to (A-C) 1 μM, 3 μM, or 10 μM of PHAR and 10 μM of SFN as a positive control for 16 h; or (D-F) 10 μM of PHAR for the indicated times. In both experiments, 0.1% DMSO was used as a vehicle. A), representative immunoblots of NRF2, HO1, KEAP1, LAMINB, and GAPDH as loading controls. B) and C), densitometric analysis of NRF2 and HO1 protein levels of the representative immunoblots depicted in (A), expressed as a ratio of NRF2/LAMINB or HO1/GAPDH. The data is depicted as means±SEM (n=3). Statistical analysis was performed with one-way ANOVA followed by the Bonferroni test to check inter-group differences. *p<0.05; ***p<0.001 vs. 0. D), representative immunoblots of NRF2, HO1, KEAP1, LAMINB, and GAPDH as loading controls. E) and F), Densitometric analysis of NRF2 and HO1 protein levels of the representative immunoblots of (D), expressed as a ratio of NRF2/LAMINB or HO1/GAPDH. The data is depicted as means±SEM (n=3). Statistical analysis was performed with one-way ANOVA followed by the Bonferroni test to check inter-group differences. *p<0.05; ***p<0.001 vs. 0. […] Luciferase activity was measured after 16 h of treatment. […] The mRNA levels of Hmox1, Nqo1, Aox1, Glc, and Gclm after 8 h of treatment were determined by means of pRT-PCR and normalized by means of average LaminB, Gapdh, and β-actin. […]

NRF2 [2] = assay: NRF2 and HO-1 protein levels in MEFs (immunoblot); type: cell-based, mouse; details: SFN 10 μM
Experimental: FIG. 4. […] MEFs in serum-depleted conditions were subjected to (A-C) 1 μM, 3 μM, or 10 μM of PHAR and 10 μM of SFN as a positive control for 16 h; or (D-F) 10 μM of PHAR for the indicated times. In both experiments, 0.1% DMSO was used as a vehicle. A), representative immunoblots of NRF2, HO1, KEAP1, LAMINB, and GAPDH as loading controls. B) and C), densitometric analysis of NRF2 and HO1 protein levels of the representative immunoblots depicted in (A), expressed as a ratio of NRF2/LAMINB or HO1/GAPDH. The data is depicted as means±SEM (n=3). Statistical analysis was performed with one-way ANOVA followed by the Bonferroni test to check inter-group differences. *p<0.05; ***p<0.001 vs. 0. D), representative immunoblots of NRF2, HO1, KEAP1, LAMINB, and GAPDH as loading controls. E) and F), Densitometric analysis of NRF2 and HO1 protein levels of the representative immunoblots of (D), expressed as a ratio of NRF2/LAMINB or HO1/GAPDH. The data is depicted as means±SEM (n=3). Statistical analysis was performed with one-way ANOVA followed by the Bonferroni test to check inter-group differences. *p<0.05; ***p<0.001 vs. 0. G), Reporter MCF-7 c32 ARE-luc cells were subjected to 1 μM, 3 μM, or 9 μM of PHAR and 10 μM of SFN as a positive control. 0.1% DMSO was used as a vehicle. Luciferase activity was measured after 16 h of treatment. The data is depicted as means±SEM (n=3). Statistical analysis was performed with one-way ANOVA followed by the Bonferroni test to check inter-group differences. **p<0.01; ***p<0.001 vs. 0. H), MTT assay to evaluate cell viability/toxicity after treatments. I), Serum-deprived MEFs were subjected to 10 μM of PHAR. The mRNA levels of Hmox1, Nqo1, Aox1, Glc, and Gclm after 8 h of treatment were determined by means of pRT-PCR and normalized by means of average LaminB, Gapdh, and β-actin. The data is depicted as means±SEM (n=3). Statistical analysis was performed with the Student's T test. *p<0.05; **p<0.01 ***p<0.001 vs. 0.
In order to empirically determine if PHAR activates NRF2, mouse embryo fibroblasts (MEFs) were treated with several doses of the compound (1 μM, 3 μM, and […]) for 16 h and with 10 μM of sulforaphane (SFN), one of main electrophilic activators of NRF2, used as a positive control.
Moreover, a time course of NRF2 activation with PHAR (10 μM for 2, 4, and 8 h) or with SFN (10 μM, 8 h) was done as a positive control.

NRF2 [3] = assay: NRF2 and HO-1 protein levels in mouse tissues after IP treatment; type: in vivo; details: C57BL/6 mice, single IP 50 mg/kg, 120 min
Experimental: FIG. 9. PHAR activates NRF2 and HO-1 in liver. A), UV and MS spectrum derived from the HPLC-MS analysis of PHAR dissolved in methanol for the identification of peaks associated with the compound. A blue rectangle surrounds the mass associated with PHAR. (B-D), the mice were treated with the vehicle (Tween-80+PBS, 1:13), 50 mg/kg of PHAR, or 50 mg/kg of SFN (saline) as a positive control by means of intraperitoneal (IP) injection for 2 hours. B), HPLC-MS UV and MS spectra derived from representative liver samples of both experimental groups used for determining PHAR levels in the liver 120 min after a single IP injection of 50 mg/kg. A blue rectangle surrounds the mass associated with PHAR. C), representative immunoblots showing NRF2, HO1, and LAMINB protein levels as the liver extract loading control. D), densitometric analysis of NRF2 protein levels of the representative immunoblots shown in (C), expressed as a ratio of NRF2/LAMINB. Statistical analysis was performed with one-way ANOVA followed by the Bonferroni test to compare inter-group differences. ***p<0.001 vs. vehicle. E) and F), the mice were treated daily with vehicle (Tween-80+PBS, 1:13) or 50 mg/kg of PHAR by means of intraperitoneal injection for 5 days. E), representative immunoblots showing NRF2, HO1, and LAMINB protein levels as loading control in brain, liver and kidney. F), densitometric analysis of NRF2 and HO1 protein levels in the liver tissue of the representative immunoblots shown in (E), expressed as a ratio of NRF2/LAMINB or HO1/LAMINB levels. Statistical analysis was performed with a Student t test to compare inter-group differences. **p<0.01 vs. vehicle.
Once the mechanism of action of PHAR was deciphered, the capacity thereof to induce NRF2 levels in a murine model was evaluated. C57BL/6 mice received a single intraperitoneal (IP) injection of 50 mg/kg PHAR (Tween-80+PBS, 1:13) or 50 mg/kg of SFN (saline) as a positive control. The UV spectrum derived from the HPLC-MS study of the PHAR compound dissolved in methanol alone helped the identification of the peak associated with the compound for subsequent identification in the tissue analysis. […] Taking this as a reference point, liver tissue analysis was performed to check for the presence of PHAR therein.
For this reason, C57BL/6 mice were treated daily by IP route for 5 days with 50 mg/kg of vehicle or 50 mg/kg of PHAR.

SMILES: C[S+]([O-])CCCCN=C=S (stereo not shown) [SFN, sulforaphane, reference compound]
- increase in luciferase activity [1]: similar
- NRF2 accumulation (NRF2 [2]; 16 h, PHAR 1, 3, 9 μM): accumulation induced by SFN
- NRF2 accumulation, time course (NRF2 [2]; PHAR 10 μM for 2, 4, 8 h, 8 h): induction generated by SFN
- liver NRF2 levels (NRF2 [3]): accumulation caused by SFN
